Assay results published in US6838565B2, “Substituted benzoic acid amides, their preparation and their use as pharmaceutical compositions” (Boehringer Ingelheim Pharma GmbH & Co. KG, priority 2002, dated 2005).
Counter-ions that a name gives are not always drawn.

Biological target: T1, human factor Xa (Homo sapiens, UniProt P00742)
T1 construct: released from the colourless chromogenic substrate by human factor Xa; purchased Roche
Experiment: Inhibition of factor Xa, enzyme-kinetic measurement with chromogenic substrate (Chromozym X)
Type: biochemical
Settings: pNA release from Chromozym X 200 μMol/l, 405 nm, 37° C., pH 8.0, factor Xa 0.175 U/ml
Protocol: Method: Enzyme-kinetic measurement with chromogenic substrate. The quantity of p-nitroaniline (pNA) released from the colourless chromogenic substrate by human factor Xa is determined photometrically at 405 nm. It is proportional to the activity of the enzyme used. The inhibition of the enzyme activity by the test substance (in relation to the solvent control) is determined at various concentrations of test substance and from this the IC50 is calculated, as the concentration which inhibits the factor Xa used by 50%.
• Tris(hydroxymethyl)-aminomethane buffer (100 mmol) and sodium chloride (150 mmol), pH 8.0 • Factor Xa (Roche), spec. activity: 10 U/0.5 ml, final concentration: 0.175 U/ml for each reaction mixture • Substrate Chromozym X (Roche), final concentration: 200 μMol/l for each reaction mixture • Test substance: final concentration 100, 30, 10, 3, 1, 0.3, 0.1, 0.03, 0.01, 0.003, 0.001 μMol/l Procedure
10 μl of a 23.5-times concentrated starting solution of the test substance or solvent (control), 175 μl of tris(hydroxymethyl)-aminomethane buffer and 25 μl of a 1.65 U/ml Factor Xa working solution are incubated for 10 minutes at 37° C. After the addition of 25 μl of Chromozym X working solution (1.88 μmol/l) the sample is measured in a photometer (SpectraMax 250) at 405 nm for 150 seconds at 37° C.
• 1. […]

T1 sequence (P00742 235-488 limits assumed): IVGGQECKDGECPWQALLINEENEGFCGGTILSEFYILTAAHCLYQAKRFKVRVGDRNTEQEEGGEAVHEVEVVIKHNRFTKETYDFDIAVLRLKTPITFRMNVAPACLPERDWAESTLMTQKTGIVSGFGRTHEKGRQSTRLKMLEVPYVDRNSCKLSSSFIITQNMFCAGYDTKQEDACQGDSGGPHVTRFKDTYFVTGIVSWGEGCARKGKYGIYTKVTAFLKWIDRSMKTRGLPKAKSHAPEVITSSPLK
T1 sequence (P00742 41-179 partner limits assumed): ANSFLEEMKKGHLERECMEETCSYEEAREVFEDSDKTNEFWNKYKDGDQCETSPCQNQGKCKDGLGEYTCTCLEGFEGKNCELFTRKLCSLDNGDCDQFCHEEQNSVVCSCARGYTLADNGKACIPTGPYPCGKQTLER

SMILES	IC50
Cc1cc(C(=O)NC(Cc2nnn[nH]2)c2cccc(C(=N)N)c2)ccc1C(=O)N1CC=CC1 (centres unmarked) [(1), N-[1-(3-amidino-phenyl)-2-(1H-tetrazol-5-yl)-ethyl]-4-(2,5-dihydro-pyrrol-1-yl-carbonyl)-3-methyl-benzamide-hydrochloride]	0.008 µM
Cc1cc(C(=O)NC(Cc2nnn[nH]2)c2cccc(C(=N)N)c2)ccc1C(=O)N1CCCC1 (centres unmarked) [(2), N-[1-(3-amidino-phenyl)-2-(1H-tetrazol-5-yl)-ethyl]-3-methyl-4-(pyrrolidin-1-carbonyl)-benzamide-hydrochloride]	0.026 µM
